The source of these data is paper PMC5791972 (PLoS ONE, 2018).

Molecules are shown by their SMILES. Like-named read-outs stand apart in the source and are kept apart here.

As usually defined, the inhibition is the change of the read-out against control, counted positive when it falls. A word on the IC50: it is the concentration that gives 50% inhibition.

Data set [1] relates to NMRI mice. The data set is described as follows: Locomotor activity. It counts as in vivo, mouse. The note with it: 0.1, 3 or 10 mg/kg PO. As for the experimental part: NMRI mice were habituated to their room for at least 2 weeks after the delivery and kept under standard conditions in groups of 4–5 animals per cage. Food and water were available ad libitum.
Spontaneous motility and rearing were measured by an automated system (Coulbourn Instruments, USA). Animals were introduced into transparent square cages (40 cm length) that are equipped with 2 light barrier systems in order to monitor the movements as well as rearing behavior automatically. The movements of the animals were recorded for 30 minutes. At the end of the experiment, the animals were sacrificed via isofluorane inhalation and subsequent decapitation.

Data set [2] has as its target T1, α1A (h) (Homo sapiens, UniProt P35348).
T1 construct: expressed in transfected cells; host or cells: CHO cells
T1 sequence (P35348 1-466): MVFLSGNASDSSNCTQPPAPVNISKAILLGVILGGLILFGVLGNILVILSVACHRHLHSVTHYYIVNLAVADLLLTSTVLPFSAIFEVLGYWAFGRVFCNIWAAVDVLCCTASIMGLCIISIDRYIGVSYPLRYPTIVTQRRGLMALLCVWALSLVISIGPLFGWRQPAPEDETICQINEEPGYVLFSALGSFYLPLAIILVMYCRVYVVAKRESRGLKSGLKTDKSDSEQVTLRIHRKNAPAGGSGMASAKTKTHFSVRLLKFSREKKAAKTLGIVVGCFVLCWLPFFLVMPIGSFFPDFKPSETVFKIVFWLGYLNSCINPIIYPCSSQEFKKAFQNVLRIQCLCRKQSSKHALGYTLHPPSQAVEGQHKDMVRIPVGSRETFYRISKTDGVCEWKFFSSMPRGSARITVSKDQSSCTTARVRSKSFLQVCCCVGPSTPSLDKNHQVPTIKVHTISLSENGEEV
Format: binding. The note with it: 1 h, 1.0E-06 M.

For data set [3], the target named is T2, tyrosine hydroxylase (Rattus norvegicus, UniProt P04177).
T2 construct: rat striatum; from tissue; host or cells: rat striatum
The data set is described as follows: enzyme assay. It counts as biochemical. The note with it: 1.0E-06 M.

Data set [4] deals with T3, MC3 (h) (Homo sapiens, UniProt P41968).
T3 construct: host or cells: CHO cells
It counts as binding.

The test system of data set [5] is kainate. It counts as binding, rat. The note with it: 1.0E-06 M.
The target in data set [6] is T4, ETA (h) (Homo sapiens, UniProt P25101).
T4 construct: host or cells: CHO cells
T4 sequence (P25101 21-427): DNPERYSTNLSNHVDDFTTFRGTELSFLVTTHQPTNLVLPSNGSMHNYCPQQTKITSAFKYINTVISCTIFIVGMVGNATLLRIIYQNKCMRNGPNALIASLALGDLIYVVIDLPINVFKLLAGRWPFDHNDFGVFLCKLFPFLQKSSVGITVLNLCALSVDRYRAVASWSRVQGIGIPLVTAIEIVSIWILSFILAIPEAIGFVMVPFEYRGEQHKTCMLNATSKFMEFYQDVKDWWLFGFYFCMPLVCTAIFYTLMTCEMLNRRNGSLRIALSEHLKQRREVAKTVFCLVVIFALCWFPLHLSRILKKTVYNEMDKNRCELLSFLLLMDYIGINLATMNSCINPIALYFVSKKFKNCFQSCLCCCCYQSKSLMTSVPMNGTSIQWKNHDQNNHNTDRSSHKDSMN
It counts as binding. The note with it: 1.0E-06 M.

Data set [7] has as its target T5, mTRPC4 (Mus musculus, UniProt Q9QUQ5).
T5 construct: The cDNAs for various full-length ion channels were subcloned into pcDNA5/TO; expressed in transfected cells
The data set is described as follows: Whole-cell manual patch clamp. Format: cell-based. The note with it: 10 µM carbachol /M1R. Background: The patch-clamp technique gives a direct electrical read-out from membranes.

Data set [8] has as its target T6, human TRPC4 (hTRPC4) (Homo sapiens, UniProt Q9UBN4).
T6 construct: The cDNAs for various full-length ion channels were subcloned into pcDNA5/TO; expressed in transfected cells; M1R co-expressed in the calcium assay, M2R in patch clamp
The data set is described as follows: Fluorometric calcium influx assay. The note with it: 1 pM to 1 μM, n = 8. Format: cell-based.

Data set [9] has as its target T7, hTRPC4 (Homo sapiens, UniProt Q9UBN4).
T7 construct: The cDNAs for various full-length ion channels were subcloned into pcDNA5/TO; expressed in transfected cells; M1R co-expressed in the calcium assay, M2R in patch clamp
Put plainly: Whole-cell manual patch clamp. Format: cell-based. The following applies: 10 µM carbachol /M1R.

The target of data set [10] is Ca2+ channel (L, diltiazem site) (benzothiazepines) (Rattus norvegicus, UniProt P22002). It counts as binding.
The target in data set [11] is T8, hTRPC1/hTRPC5 (Homo sapiens, UniProt Q9UL62).
T8 construct: The cDNAs for various full-length ion channels were subcloned into pcDNA5/TO; expressed in transfected cells; host or cells: heterologous co-expression
The data set is described as follows: Whole-cell manual patch clamp. Format: cell-based.

Data set [12] addresses T9, V1a (h) (Homo sapiens, UniProt P37288).
T9 construct: host or cells: CHO cells
Format: binding. The following applies: 1.0E-06 M.

In data set [13] the target is T10, phosphatase 1B (h) (PTP1B) (Homo sapiens, UniProt P18031).
T10 construct: host or cells: E. coli
T10 sequence (P18031 1-435): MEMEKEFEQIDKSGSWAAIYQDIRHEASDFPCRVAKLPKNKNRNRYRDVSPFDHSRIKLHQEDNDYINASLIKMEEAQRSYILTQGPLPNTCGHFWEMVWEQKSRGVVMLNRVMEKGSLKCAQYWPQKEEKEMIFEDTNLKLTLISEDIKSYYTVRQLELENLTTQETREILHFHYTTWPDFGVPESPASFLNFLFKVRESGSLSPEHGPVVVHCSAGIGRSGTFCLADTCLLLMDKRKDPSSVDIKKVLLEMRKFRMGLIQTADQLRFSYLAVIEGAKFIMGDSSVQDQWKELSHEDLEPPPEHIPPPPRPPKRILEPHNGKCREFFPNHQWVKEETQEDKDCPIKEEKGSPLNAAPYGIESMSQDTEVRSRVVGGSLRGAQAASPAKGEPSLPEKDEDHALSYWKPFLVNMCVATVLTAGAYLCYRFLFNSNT
The data set is described as follows: enzyme assay. Format: biochemical. The note with it: 1.0E-06 M.

The target in data set [14] is β2 (h) (Homo sapiens, UniProt P07550). It counts as binding. The following applies: 1.0E-06 M.
Sequence of β2 (h) (P07550 whole entry): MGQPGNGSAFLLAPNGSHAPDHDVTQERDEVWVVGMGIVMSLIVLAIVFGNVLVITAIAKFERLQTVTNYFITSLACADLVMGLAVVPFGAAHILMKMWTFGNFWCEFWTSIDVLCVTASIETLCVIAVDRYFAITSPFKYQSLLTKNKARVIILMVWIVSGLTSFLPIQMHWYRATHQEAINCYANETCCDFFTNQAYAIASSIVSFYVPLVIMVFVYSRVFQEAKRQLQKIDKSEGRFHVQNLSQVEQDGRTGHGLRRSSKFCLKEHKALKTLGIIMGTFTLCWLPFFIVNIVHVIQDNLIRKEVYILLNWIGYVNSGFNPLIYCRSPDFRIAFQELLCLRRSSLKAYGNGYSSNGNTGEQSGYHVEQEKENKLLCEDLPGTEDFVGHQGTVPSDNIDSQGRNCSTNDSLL

T9 sequence (P37288 whole entry): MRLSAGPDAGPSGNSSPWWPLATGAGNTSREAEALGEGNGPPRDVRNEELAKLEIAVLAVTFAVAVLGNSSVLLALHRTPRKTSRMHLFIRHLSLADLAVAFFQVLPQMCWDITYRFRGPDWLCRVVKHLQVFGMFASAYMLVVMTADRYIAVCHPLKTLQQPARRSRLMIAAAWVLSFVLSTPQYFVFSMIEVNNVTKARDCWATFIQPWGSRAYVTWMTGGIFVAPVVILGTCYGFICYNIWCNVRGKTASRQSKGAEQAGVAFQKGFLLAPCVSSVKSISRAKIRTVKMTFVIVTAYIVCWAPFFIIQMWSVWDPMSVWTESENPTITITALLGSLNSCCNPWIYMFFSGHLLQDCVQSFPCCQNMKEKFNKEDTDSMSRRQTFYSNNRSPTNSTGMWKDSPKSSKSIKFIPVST
T3 sequence (P41968 whole entry): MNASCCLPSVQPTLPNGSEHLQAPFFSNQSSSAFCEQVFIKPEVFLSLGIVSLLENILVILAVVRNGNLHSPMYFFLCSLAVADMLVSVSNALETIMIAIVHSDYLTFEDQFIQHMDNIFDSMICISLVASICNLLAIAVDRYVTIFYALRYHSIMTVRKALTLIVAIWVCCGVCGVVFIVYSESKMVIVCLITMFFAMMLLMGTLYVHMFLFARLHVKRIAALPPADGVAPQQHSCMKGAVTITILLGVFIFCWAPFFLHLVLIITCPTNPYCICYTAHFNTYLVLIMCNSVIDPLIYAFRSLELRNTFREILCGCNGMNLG
Sequence of Ca2+ channel (L, diltiazem site) (benzothiazepines) (P22002 whole entry): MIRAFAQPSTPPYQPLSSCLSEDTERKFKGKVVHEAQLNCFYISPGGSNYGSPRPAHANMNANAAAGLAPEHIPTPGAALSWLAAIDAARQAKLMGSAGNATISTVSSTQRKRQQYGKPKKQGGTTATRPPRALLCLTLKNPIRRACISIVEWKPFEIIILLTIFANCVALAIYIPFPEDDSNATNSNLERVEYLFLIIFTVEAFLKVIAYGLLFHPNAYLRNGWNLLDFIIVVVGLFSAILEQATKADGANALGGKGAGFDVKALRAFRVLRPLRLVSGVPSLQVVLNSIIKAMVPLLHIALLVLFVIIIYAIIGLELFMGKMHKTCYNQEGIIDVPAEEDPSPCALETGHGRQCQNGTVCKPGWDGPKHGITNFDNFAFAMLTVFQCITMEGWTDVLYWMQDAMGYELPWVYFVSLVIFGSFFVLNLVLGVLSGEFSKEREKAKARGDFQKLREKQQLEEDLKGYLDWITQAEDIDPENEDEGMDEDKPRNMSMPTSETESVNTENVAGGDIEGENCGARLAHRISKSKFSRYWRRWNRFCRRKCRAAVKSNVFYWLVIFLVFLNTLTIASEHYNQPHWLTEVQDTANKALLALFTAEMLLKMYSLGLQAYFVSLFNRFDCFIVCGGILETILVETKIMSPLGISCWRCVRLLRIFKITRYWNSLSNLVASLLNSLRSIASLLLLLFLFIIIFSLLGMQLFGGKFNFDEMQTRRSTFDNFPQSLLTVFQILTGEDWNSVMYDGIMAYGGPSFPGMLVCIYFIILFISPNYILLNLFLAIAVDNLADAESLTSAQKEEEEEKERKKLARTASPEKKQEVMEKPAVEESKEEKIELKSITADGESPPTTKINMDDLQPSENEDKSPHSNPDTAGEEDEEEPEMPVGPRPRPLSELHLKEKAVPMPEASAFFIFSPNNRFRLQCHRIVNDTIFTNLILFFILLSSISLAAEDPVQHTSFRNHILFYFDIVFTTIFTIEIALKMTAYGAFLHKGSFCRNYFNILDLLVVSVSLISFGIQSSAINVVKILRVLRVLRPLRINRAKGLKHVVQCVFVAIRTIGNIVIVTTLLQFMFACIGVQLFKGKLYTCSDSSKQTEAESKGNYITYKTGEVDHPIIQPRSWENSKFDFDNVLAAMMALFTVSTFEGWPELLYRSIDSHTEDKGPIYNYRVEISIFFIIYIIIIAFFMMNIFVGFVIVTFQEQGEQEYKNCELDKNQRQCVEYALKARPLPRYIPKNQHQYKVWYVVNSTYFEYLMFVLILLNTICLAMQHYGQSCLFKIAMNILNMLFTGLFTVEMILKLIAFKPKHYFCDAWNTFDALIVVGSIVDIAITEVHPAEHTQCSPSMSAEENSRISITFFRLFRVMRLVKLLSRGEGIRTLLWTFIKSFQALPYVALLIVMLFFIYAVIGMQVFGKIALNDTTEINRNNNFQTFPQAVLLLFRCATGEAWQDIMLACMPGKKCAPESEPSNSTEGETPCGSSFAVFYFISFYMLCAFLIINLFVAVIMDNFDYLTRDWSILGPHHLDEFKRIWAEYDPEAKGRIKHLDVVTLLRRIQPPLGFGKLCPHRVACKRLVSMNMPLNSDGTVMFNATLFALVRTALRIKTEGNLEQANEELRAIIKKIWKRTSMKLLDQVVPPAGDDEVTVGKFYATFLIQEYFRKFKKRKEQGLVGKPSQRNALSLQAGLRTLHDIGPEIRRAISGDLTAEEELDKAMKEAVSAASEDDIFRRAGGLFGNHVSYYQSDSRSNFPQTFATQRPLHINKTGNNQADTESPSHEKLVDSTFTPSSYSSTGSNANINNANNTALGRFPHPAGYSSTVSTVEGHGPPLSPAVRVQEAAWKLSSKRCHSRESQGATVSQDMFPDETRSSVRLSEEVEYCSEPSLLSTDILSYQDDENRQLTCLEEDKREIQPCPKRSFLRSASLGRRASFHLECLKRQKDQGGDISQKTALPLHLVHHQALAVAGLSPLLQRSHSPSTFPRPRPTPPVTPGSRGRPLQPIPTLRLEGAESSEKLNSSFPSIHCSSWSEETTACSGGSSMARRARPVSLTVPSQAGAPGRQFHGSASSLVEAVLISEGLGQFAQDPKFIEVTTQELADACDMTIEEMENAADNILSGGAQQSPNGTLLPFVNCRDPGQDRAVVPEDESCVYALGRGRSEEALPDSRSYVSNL
T8 sequence (Q9UL62 whole entry): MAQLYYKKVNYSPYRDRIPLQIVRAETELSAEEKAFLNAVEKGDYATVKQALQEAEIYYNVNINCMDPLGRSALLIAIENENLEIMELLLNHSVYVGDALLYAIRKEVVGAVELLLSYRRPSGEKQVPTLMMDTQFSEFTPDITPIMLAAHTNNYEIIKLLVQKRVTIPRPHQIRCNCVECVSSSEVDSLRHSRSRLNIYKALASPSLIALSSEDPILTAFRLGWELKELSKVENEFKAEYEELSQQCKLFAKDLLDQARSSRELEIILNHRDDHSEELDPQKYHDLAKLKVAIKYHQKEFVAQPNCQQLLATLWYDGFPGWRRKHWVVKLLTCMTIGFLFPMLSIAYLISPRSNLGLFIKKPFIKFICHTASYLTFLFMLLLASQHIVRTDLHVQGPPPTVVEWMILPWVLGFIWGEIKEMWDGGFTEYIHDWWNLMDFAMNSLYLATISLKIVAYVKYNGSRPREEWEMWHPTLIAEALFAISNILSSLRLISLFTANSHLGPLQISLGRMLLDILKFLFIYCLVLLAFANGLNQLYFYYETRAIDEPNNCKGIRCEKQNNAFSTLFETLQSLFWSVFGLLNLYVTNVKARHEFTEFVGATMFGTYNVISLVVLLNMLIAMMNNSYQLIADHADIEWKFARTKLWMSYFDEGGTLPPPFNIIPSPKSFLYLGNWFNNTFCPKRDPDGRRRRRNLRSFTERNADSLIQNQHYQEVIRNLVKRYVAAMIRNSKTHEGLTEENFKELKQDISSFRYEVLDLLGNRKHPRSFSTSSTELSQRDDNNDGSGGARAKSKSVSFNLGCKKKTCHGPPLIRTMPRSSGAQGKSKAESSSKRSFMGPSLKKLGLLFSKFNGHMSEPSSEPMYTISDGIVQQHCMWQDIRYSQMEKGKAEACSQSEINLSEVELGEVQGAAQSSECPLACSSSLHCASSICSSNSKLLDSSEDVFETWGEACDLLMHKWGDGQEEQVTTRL
T8 sequence (P48995 whole entry partner): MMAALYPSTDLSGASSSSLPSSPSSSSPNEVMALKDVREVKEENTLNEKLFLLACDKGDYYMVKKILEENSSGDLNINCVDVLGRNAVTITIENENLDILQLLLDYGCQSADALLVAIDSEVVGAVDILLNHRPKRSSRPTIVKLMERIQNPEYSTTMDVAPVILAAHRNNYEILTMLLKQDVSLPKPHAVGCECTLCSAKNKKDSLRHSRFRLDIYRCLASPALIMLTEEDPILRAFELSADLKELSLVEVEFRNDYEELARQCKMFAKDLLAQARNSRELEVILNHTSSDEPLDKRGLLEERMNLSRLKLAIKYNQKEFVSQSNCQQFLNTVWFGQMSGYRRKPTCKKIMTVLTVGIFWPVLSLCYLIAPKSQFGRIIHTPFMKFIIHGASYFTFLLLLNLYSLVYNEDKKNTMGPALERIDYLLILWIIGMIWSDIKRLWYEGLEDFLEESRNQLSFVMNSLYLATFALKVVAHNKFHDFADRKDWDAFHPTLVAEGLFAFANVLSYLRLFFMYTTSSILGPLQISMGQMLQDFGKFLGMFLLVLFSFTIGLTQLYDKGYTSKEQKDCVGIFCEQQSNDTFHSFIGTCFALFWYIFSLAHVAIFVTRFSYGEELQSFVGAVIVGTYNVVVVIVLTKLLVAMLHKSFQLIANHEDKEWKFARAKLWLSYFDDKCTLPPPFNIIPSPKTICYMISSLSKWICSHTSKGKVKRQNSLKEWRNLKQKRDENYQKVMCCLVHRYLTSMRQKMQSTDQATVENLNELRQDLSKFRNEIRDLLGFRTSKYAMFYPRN

As for `Cn1c(=O)n(CCCO)c(=O)c2c1nc(Oc1cccc(Cl)c1)n2Cc1ccc(Cl)cc1` [HC-070], the locomotor activity entry in [1] is given as “not impacted”. Moreover, the inhibition at 1 µM in [2] (read-out: % Inhibition 1st) is -6.1%; in [2] (read-out: % Inhibition 2nd), 3.1%; in [2] (read-out: % Inhibition Mean), -1.5%; in data set [3] (read-out: % Inhibition 1st), -27.2%; in data set [3] (read-out: % Inhibition Mean), -23%.

As for `Cn1c(=O)n(CCCO)c(=O)c2c1nc(Oc1cccc(OC(F)(F)F)c1)n2Cc1ccc(Cl)cc1` [HC-608], the inhibition at 1 µM in data set [4] (1.0E-06 M, read-out: % Inhibition 1st) was 14.4%; in [4] (1.0E-06 M, read-out: % Inhibition 2nd) it was 15.3%; in data set [4] (read-out: % Inhibition Mean), 14.8%; in data set [6] (read-out: % Inhibition 1st), -33.9%; in [6] (read-out: % Inhibition 2nd), 6.7%; in [6] (read-out: % Inhibition Mean), -13.6%. The inhibition at 1 µM in data set [12] (read-out: % Inhibition 1st) is -9.9%; in data set [12] (read-out: % Inhibition 2nd), 12.5%; in data set [12] (read-out: % Inhibition Mean), 1.3%; in [14] (read-out: % Inhibition 1st) it was -1.9%; in [14] (read-out: % Inhibition 2nd), 0.5%; in data set [14] (read-out: % Inhibition Mean), -0.7%. Moreover, the “% Inhibition 1st” value in [5] is 5.9%; in [10], -1.9%; in [13], -6.7%. Also, the “% Inhibition 2nd” value in data set [5] is 5.3%; in data set [10], 8.8%; in data set [13] it was -5.9%. Moreover, the “% Inhibition Mean” value in data set [5] is recorded as 5.6%; in [10] it was 3.4%; in [13] it was -6.3%. Moreover, the IC50 in data set [7] was approximately 0.45 nM; in data set [8], 32.5 ± 1.8 nM; in data set [9], approximately 0.17 nM; in data set [11] (20 μM carbachol/M1R), approximately 4.7 nM; in data set [11] (La3+ (80 μM)) it was approximately 1.4 nM.
